Laboratory results reported in US20240174690A1, “ANNULATED 2-AMINO-3-CYANO THIOPHENES AND DERIVATIVES FOR THE TREATMENT OF CANCER” (BOEHRINGER INGELHEIM INTERNATIONAL GMBH, priority 2021, published 2024).
≈ marks a conversion by molar mass, not a printed value. Where two headings read alike, the source gives them in different places.

Assays:
[1] = test system: KRAS G12C-dependent Ba/F3 cells; test: Ba/F3 proliferation assay, KRAS G12C; format: cell-based; settings: Mus musculus, BaF3, 72 h, AlamarBlue
How it was run: (§1)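 Viability is measured as AlamarBlue fluorescence in Ba/F3 cells that depend on a transduced mutant KRAS isoform for growth without IL-3. Each treatment is run in technical duplicate, and dose-response curves are fitted.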

[2] = Solubility measurement (DMSO solution method), McIlvaine buffer pH 4.5 or 6.8; format: physicochemical; settings: aqueous buffer, kinetic from dmso stock, DMSO stock diluted to 250 μM, 24 h shaking at ambient temperature
How it was run: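 DMSO stock diluted into McIlvaine buffer, pH 4.5 or 6.8, to 250 µM final, shaken 24 h at ambient temperature. Precipitate removed by filtration; filtrate quantified by LC-UV against a fully dissolved reference in acetonitrile/water 1:1.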

[3] = test system: KRAS G12V-dependent Ba/F3 cells; test: Ba/F3 proliferation assay, KRAS G12V; format: cell-based; settings: Mus musculus, BaF3, 72 h, AlamarBlue;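 note: proliferation IC50 in KRAS G12V-dependent Ba/F3 cells read by AlamarBlue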
How it was run: as §1

SK-CO-1 cells = test: SK-CO-1 CTG proliferation assay (120 h) (CRC, G12V); format: cell-based; settings: Homo sapiens; SK-CO-1 cells (CRC, G12V), CTG 120 h
How it was run: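 SK-CO-1 colorectal cells (KRAS G12V), 500 per well in EMEM + 10% FCS, dosed with compound the day after seeding and grown 120 h at 37 °C. Viability by CellTiter-Glo luminescence as percent of DMSO control; IC50 from four-parameter non-linear regression.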

[4] = McIlvaine buffer pH 4.5, read-out: solubility pH 4.5
[5] = McIlvaine buffer pH 6.8, read-out: solubility pH 6.8

Row | IC50 [1] [nM] | solubility at 24 h [2, 4] [µg/mL] | solubility at 24 h [2, 5] [µg/mL] | IC50 [3] [nM] | IC50 (SK-CO-1 cells) [nM] | SMILES
1 | 224 | > 152 | 125 (≈ 198 µM) | 343 | 710 | C[C@H](Oc1cc(N2CCNC[C@]23CCOC3)nc(-c2onc3c2CCC[C@@]32CCCc3sc(N)c(C#N)c32)n1)[C@@H]1CCCN1C [I-12]
2 | 1540 | > 148 | > 150 | 821 | 2160 | C[C@H](Oc1cc(N2CCNC[C@@]23CCOC3)nc(-c2onc3c2CCC[C@@]32CCCc3sc(N)c(C#N)c32)n1)[C@@H]1CCCN1C [I-13]
3 | 15 | 41 (≈ 67.5 µM) | < 1 | 7 | 71 | C[C@H](Oc1cc(-n2cncc3ccnc2-3)nc(-c2onc3c2CCC[C@@]32CCCc3sc(N)c(C#N)c32)n1)[C@@H]1CCCN1C [I-14]
4 | 930 | 1 (≈ 1.84 µM) | < 1 | – | – | C[C@H]1CNCCCN1c1nc(-c2onc3c2CCC[C@@]32CCCc3sc(N)c(C#N)c32)cc(C(F)(F)F)n1 [I-15]
5 | 21 | > 118 | 82 (≈ 143 µM) | 9 | – | C[C@H](Oc1cc(-c2cn(C)nn2)nc(-c2onc3c2CCC[C@@]32CCCc3sc(N)c(C#N)c32)n1)[C@@H]1CCCN1C [I-16]
6 | 40 | – | – | 23 | 357 | CO[C@@H]1C[C@@H]([C@H](C)Oc2cc(-c3cnn(C)n3)nc(-c3onc4c3CCC[C@@]43CCCc4sc(N)c(C#N)c43)n2)N(C)C1 [I-17]
7 | 11 | > 121 | 91 (≈ 163 µM) | 8 | 236 | C[C@H](Oc1cc(-n2cncn2)nc(-c2onc3c2CCC[C@@]32CCCc3sc(N)c(C#N)c32)n1)[C@@H]1CCCN1C [I-18]
8 | 76 | 48 (≈ 78.5 µM) | 14 (≈ 22.9 µM) | 23 | 56 | C[C@H](Oc1cc(N2Cc3cnn(C)c3C2)nc(-c2onc3c2CCC[C@@]32CCCc3sc(N)c(C#N)c32)n1)[C@@H]1CCCN1C [I-19]
9 | 17 | < 1 | < 1 | 16 | 121 | C[C@H](Oc1cc(-n2cc(-c3cncs3)nn2)nc(-c2noc3c2CCC[C@@]32CCCc3sc(N)c(C#N)c32)n1)[C@@H]1CCCN1C [II-125]
10 | 32 | 123 (≈ 196 µM) | 104 (≈ 166 µM) | 26 | 137 | C[C@H](Oc1cc(-n2cnc(C(=O)N(C)C)c2)nc(-c2noc3c2CCC[C@@]32CCCc3sc(N)c(C#N)c32)n1)[C@@H]1CCCN1C [II-126]
11 | 13 | > 127 | 39 (≈ 62.2 µM) | 13 | 90 | C[C@H](Oc1cc(-c2ccn([C@H]3CCOC3)n2)nc(-c2noc3c2CCC[C@@]32CCCc3sc(N)c(C#N)c32)n1)[C@@H]1CCCN1C [II-127]
12 | 10 | > 130 | 42 (≈ 65.9 µM) | 31 | 47 | C[C@H](Oc1cc(-c2ccn(Cc3ncco3)n2)nc(-c2noc3c2CCC[C@@]32CCCc3sc(N)c(C#N)c32)n1)[C@@H]1CCCN1C [II-128]
13 | 11 | > 130 | 15 (≈ 23.4 µM) | 9 | 66 | C[C@H](Oc1cc(-c2ccn(C[C@H]3CCOC3)n2)nc(-c2noc3c2CCC[C@@]32CCCc3sc(N)c(C#N)c32)n1)[C@@H]1CCCN1C [II-129]
14 | 6 | < 1 | < 1 | 6 | 29 | C[C@H](Oc1cc(-n2ccc(-c3cnccn3)n2)nc(-c2noc3c2CCC[C@@]32CCCc3sc(N)c(C#N)c32)n1)[C@@H]1CCCN1C [II-130]
15 | 16 | – | – | 19 | 90 | C[C@H](Oc1cc(-n2nccc2-c2ccncc2)nc(-c2noc3c2CCC[C@@]32CCCc3sc(N)c(C#N)c32)n1)[C@@H]1CCCN1C [II-131]
16 | 10 | 117 (≈ 186 µM) | 100 (≈ 159 µM) | 6 | 18 | C[C@H](Oc1cc(-n2cc(C(=O)N(C)C)nn2)nc(-c2noc3c2CCC[C@@]32CCCc3sc(N)c(C#N)c32)n1)[C@@H]1CCCN1C [II-132]
17 | 33 | 3 (≈ 4.92 µM) | < 1 | 19 | 89 | C[C@H](Oc1cc(-c2cccc(C(N)=O)c2)nc(-c2noc3c2CCC[C@@]32CCCc3sc(N)c(C#N)c32)n1)[C@@H]1CCCN1C [II-133]

Row | IC50 [1] [nM] | solubility at 24 h [2, 4] [µg/mL] | solubility at 24 h [2, 5] [µg/mL] | IC50 [3] [nM] | IC50 (SK-CO-1 cells) [nM] | SMILES
18 | 41 | 116 (≈ 188 µM) | 105 (≈ 171 µM) | 28 | 225 | C[C@H](O)Cn1ncc(-c2cc(O[C@@H](C)[C@@H]3CCCN3C)nc(-c3noc4c3CCC[C@@]43CCCc4sc(N)c(C#N)c43)n2)n1 [II-134]
19 | 1020 | 82 (≈ 148 µM) | 8 (≈ 14.4 µM) | – | 292 | C[C@H]1CNCCCN1c1cc(-c2ccn(C)n2)nc(-c2noc3c2CCC[C@@]32CCCc3sc(N)c(C#N)c32)n1 [II-140]
20 | 134 | 123 (≈ 197 µM) | 83 (≈ 133 µM) | 170 | 436 | C[C@H](Oc1cc(-n2cc3c(n2)CCN(C)C3)nc(-c2noc3c2CCC[C@@]32CCCc3sc(N)c(C#N)c32)n1)[C@@H]1CCCN1C [II-141]
21 | 2200 | 86 (≈ 159 µM) | 10 (≈ 18.5 µM) | 1770 | 2190 | C[C@H]1CNCCCN1c1cc(-n2ccnc2)nc(-c2noc3c2CCC[C@@]32CCCc3sc(N)c(C#N)c32)n1 [II-142]
22 | 5 | > 123 | 91 (≈ 158 µM) | 2 | 9 | C[C@H](Oc1cc(N2CCOC2=O)nc(-c2noc3c2CCC[C@@]32CCCc3sc(N)c(C#N)c32)n1)[C@@H]1CCCN1C [II-143]
23 | 2 | 105 (≈ 178 µM) | < 1 | – | 130 | C[C@H](Oc1cc(-c2ccn(C)n2)nc(-c2noc3c2CCC[C@@]32CCCc3sc(N)c(C#N)c32)n1)[C@@H]1C[C@H](F)CN1C [II-144]
24 | 99 | > 146 | < 1 | 162 | 779 | C[C@H](Oc1cc(N2CCN(C)C3(COC3)C2)nc(-c2noc3c2CCC[C@@]32CCCc3sc(N)c(C#N)c32)n1)[C@@H]1C[C@@H](F)CN1C [II-148]
25 | 333 | > 164 | < 1 | 412 | 1980 | C[C@H](Oc1cc(N2CCN(C)C3(CC3)C2)nc(-c2noc3c2CCC[C@@]32CCCc3sc(N)c(C#N)c32)n1)[C@@H]1C[C@@H](F)CN1C [II-149]
26 | 55 | > 149 | 57 (≈ 89.8 µM) | 77 | 325 | C[C@H](Oc1cc(N2CCNC3(COC3)C2)nc(-c2noc3c2CCC[C@@]32CCCc3sc(N)c(C#N)c32)n1)[C@@H]1C[C@@H](F)CN1C [II-150]
27 | 393 | > 161 | < 1 | 655 | 1360 | C[C@H](Oc1cc(N2CCN(C)C3(CCOC3)C2)nc(-c2noc3c2CCC[C@@]32CCCc3sc(N)c(C#N)c32)n1)[C@@H]1C[C@@H](F)CN1C (stereo partly drawn) [II-151]
28 | 1290 | > 132 | 61 (≈ 94.6 µM) | 1190 | 955 | CO[C@@H]1C[C@@H]([C@H](C)Oc2cc(N3CCN(C)C4(CC4)C3)nc(-c3noc4c3CCC[C@@]43CCCc4sc(N)c(C#N)c43)n2)N(C)C1 [II-152]
29 | 1560 | > 135 | 103 (≈ 156 µM) | 2380 | 872 | CO[C@@H]1C[C@@H]([C@H](C)Oc2cc(N3CCN(C)C4(COC4)C3)nc(-c3noc4c3CCC[C@@]43CCCc4sc(N)c(C#N)c43)n2)N(C)C1 [II-153]
30 | 910 | – | – | 971 | 1020 | C[C@@H]1CN(c2cc(O[C@@H](C)[C@@H]3CCCN3C)nc(-c3noc4c3CCC[C@@]43CCCc4sc(N)c(C#N)c43)n2)CCN1 [II-161]
31 | 3 | 73 (≈ 104 µM) | 12 (≈ 17 µM) | – | 3 | C[C@H](NC(=O)c1ccn(-c2cc(O[C@@H](C)[C@@H]3CCCN3C)nc(-c3noc4c3CCC[C@@]43CCCc4sc(N)c(C#N)c43)n2)n1)c1ccccn1 [II-191]
32 | 19 | – | – | 6 | 31 | C[C@H](Oc1cc(-n2cc3ccn([C@@H](C)c4ccccn4)c(=O)c3n2)nc(-c2noc3c2CCC[C@@]32CCCc3sc(N)c(C#N)c32)n1)[C@@H]1CCCN1C [II-205]
33 | 2 | 16 (≈ 23.1 µM) | < 1 | – | 4 | C[C@H](Oc1cc(-n2ccc(-c3cn([C@H]4CCOC4)nn3)n2)nc(-c2noc3c2CCC[C@@]32CCCc3sc(N)c(C#N)c32)n1)[C@@H]1CCCN1C [II-212]

Row | SMILES | IC50 [1] [nM] | solubility at 24 h [2, 4] [µg/mL] | solubility at 24 h [2, 5] [µg/mL] | IC50 [3] [nM] | IC50 (SK-CO-1 cells) [nM]
34 | C[C@H](Oc1cc(N2CC3COCC(C2)N3)nc(-c2noc3c2CCC[C@@]32CCCc3sc(N)c(C#N)c32)n1)[C@@H]1CCCN1C [II-160] | 1720 | – | – | 2010 | 6850
